Results: US10258610B2, “Pharmaceutical compositions comprising rifaximin, processes for their preparation and their use in the treatment of vaginal infections” (ALFASIGMA S.P.A., priority 2011, dated 2019)
Entries after “also recorded” stand apart in the source; their conditions may differ. Where two headings read alike, the source gives them in different places.

Legend:
[1] = tested on: Gardnerella vaginalis; type: in vivo, New Zealand rabbits (Oryctolagus cunicolis)
Protocol: The efficacy of vaginal compositions in rifaximin containing tablets and ovules was evaluated in an animal model of bacterial infection persistent in the rabbit.
The vaginal infection model was induced by inoculation of Gardnerella vaginalis isolated from women affected by bacterial vaginosis. The bacterial strains were grown in agar of bovine red blood cells at 37° C. by adding a DIFCO-C supplement and were kept under controlled atmosphere 5% CO2 for 24-48 hours.
For developing the model of animal infection, New Zealand rabbits (Oryctolagus cunicolis) having a weight comprised between 2 and 3 kg were used.
Before the infection, the animals had been treated with 1 ml 10% enrofloxacin solution for reducing the endogenous Lactobacilli and facilitating the growth of pathogenic agent. The infection was induced by inoculating in the animals vagina 1 ml of sterile saline solution containing 106-7 UFC (Unit Forming Colony) of Gardnerella vaginalis by using a 22-24G Teflon catheter. The presence of G. vaginalis in the animals was verified before the inoculation and 24 and 48 hours after the inoculation.
The animals were inoculated twice and thrice at time intervals of three days. After 14 days the last inoculation all animals were treated with 1 ml 10% enrofloxacin solution to verify the model sensitivity to antibiotics. The treatment healed the infection, thus confirming that the model can be used to evaluate the efficacy of antibiotics administered via the intravaginal route.
The presence of G. vaginalis was verified by vaginal buffer 1, 2, 4, 10 and 14 days after the last inoculation, putting the vaginal buffers in agar plates of bovine red blood cells with DIFCO-C supplement and growing them at 37° C. for 48 hours. The presence of G. vaginalis was verified by means of microscope (1000×) morphological identification and with Gram staining.
Three and seven days after the end of the rifaximin treatment, the presence of Gardnerella vaginalis was evaluated by means of vaginal buffers as previously described.
The vaginal buffers were considered positive if 10 or more colonies were counted, and the presence of malodorous vaginal discharges was the clinical sign of the occurred infection.

[2] = Phase II clinical trial, adverse events; type: in vivo, human
Text: The adverse events reported by patients were registered, and the most frequent one was the rifaximin related vulvovaginal itching and burning.
In Table 23 it is reported the percentage of patients belonging to different treatment groups who reported adverse events both systemic and local, vulvovaginal itching and burning related to rifaximin.

[3] = tested on: bacterial vaginosis; experiment: Phase II clinical trial, recovery by Amsel criteria and Nugent score; type: in vivo, human; conditions: for Recovery of patients after relapse of bacterial vaginosis / Recovery of patients suffering from a first episode of bacterial vaginosis: visit V4 as titled, Amsel and Nugent
Text: The example describes the clinical trial Phase II carried out on 114 patients affected by bacterial vaginosis, non-pregnant, having an age between 18 and 50 years. The diagnosis of bacterial vaginosis was based on Amsel criteria, wherein at least three criteria out of four must be positive, and on the Nugent score, wherein a score higher than four indicates the presence of pathogenic vaginal bacteria. The objectives of the trial were the evaluation of recovery from bacterial vaginosis both according to Amsel criteria (Amsel index <3) and according to Nugent score (Nugent index <4) 7-10 days after the end of the therapy. The secondary objectives of the trial were the recovery, separately evaluated according to Amsel criteria and to Nugent score, at the first control visit (V3), the continued recovery at the second control visit (V4) and the evaluation of the composition of vaginal microbiota by means of PCR and PCR-DGGE. In particular, the patients affected by bacterial vaginosis and not affected by contemporaneous viral, protozoan and fungal vaginal infections were assigned to one of the following treatment groups using a centralized randomization procedure and a double-blind experimental design: Group A: 21 patients receiving a vaginal tablet of rifaximin containing 100 mg rifaximin, prepared according to Example 2, once a day for five days, in the evening; Group B: 23 patients receiving a vaginal tablet of rifaximin containing 25 mg rifaximin, prepared according to Example 1, once a day for five days, in the evening; Group C: 19 patients receiving a vaginal tablet of rifaximin containing 100 mg rifaximin, prepared according to Example 2, once a day for two days, in the evening, plus a vaginal tablet of placebo, once a day for the remaining three days, in the evening; Group D: 22 patients receiving a placebo tablet prepared according to Example 1, wherein the rifaximin amount was replaced by lactose monohydrate, once a day for five days, in the evening. The study included a screening visit (V1) followed by a randomization visit after seven days (V2), by a first control visit 7-10 days after the end of the therapy (V3) and by a second and last control visit 28-35 days after the end of the therapy (V4). The evaluation of the attainment of the primary objective was carried out during visit V3, and the evaluation of the attainment of the secondary objectives was evaluated during the second and last visit (V4). Table 18 reports the percent recovery from the disease at the visit V3, according to both evaluation criteria, namely the clinical one (Amsel) and the microbiological (Nugent). The recovery was evaluated according to Nugent score by using a Gram stained slide and by evaluating the proportion between Lactobacilli and other bacteria such as Gram-variable or Gram-negative coccobacilli, Gram-variable curved bacilli.

[4] = Group A: 1 tablet 100 mg × 5 days
[5] = Group B: 1 tablet 25 mg × 5 days
[6] = Group C: 1 tablet 100 mg × 2 days
[7] = visit V3, Group A: 1 tablet 100 mg × 5 days
[8] = visit V3, Group A: 1 tablet 100 mg × 5 days, listed as rifaximin
[9] = visit V3, Group B: 1 tablet 25 mg × 5 days
[10] = visit V3, Group B: 1 tablet 25 mg × 5 days, listed as rifaximin
[11] = visit V3, Group C: 1 tablet 100 mg × 2 days
[12] = visit V3, Group C: 1 tablet 100 mg × 2 days, listed as rifaximin

CO[C@H]1/C=C/O[C@@]2(C)Oc3c(C)c(O)c4c(O)c(c5c(nc6cc(C)ccn65)c4c3C2=O)NC(=O)/C(C)=C\C=C\[C@H](C)[C@H](O)[C@@H](C)[C@@H](O)[C@@H](C)[C@H](OC(C)=O)[C@@H]1C [Rifaximin]
adverse event during treatment ([1]; rabbit, in vivo): No adverse event was observed
eradication of the infection (presence of Gardnerella vaginalis) ([1]; seven days after the end of the treatment, tablets and ovules, 1.5 to 12.5 mg): negative for 7 days after the end of the treatment
Eradication ([1]; vaginal ovules, rifaximin dose 1.5 mg, after 3 days): 100%
Eradication ([1]; vaginal ovules, rifaximin dose 1.5 mg, after 7 days): 100%
Eradication ([1]; vaginal ovules, rifaximin dose 3 mg, after 3 days): 88%
Eradication ([1]; vaginal ovules, rifaximin dose 3 mg, after 7 days): 100%
Eradication ([1]; vaginal ovules, rifaximin dose 6 mg, after 3 days): 88%
Eradication ([1]; vaginal ovules, rifaximin dose 6 mg, after 7 days): 100%
Eradication ([1]; vaginal ovules, rifaximin dose 12.5 mg, after 3 days): 100%
Eradication ([1]; vaginal ovules, rifaximin dose 12.5 mg, after 7 days): 100%
Eradication ([1]; vaginal tablets, rifaximin dose 1.5 mg, after 3 days): 88%
Eradication ([1]; vaginal tablets, rifaximin dose 1.5 mg, after 7 days): 100%
Eradication ([1]; vaginal tablets, rifaximin dose 3 mg, after 3 days): 63%
Eradication ([1]; vaginal tablets, rifaximin dose 3 mg, after 7 days): 100%
Eradication ([1]; vaginal tablets, rifaximin dose 6 mg, after 3 days): 88%
Eradication ([1]; vaginal tablets, rifaximin dose 6 mg, after 7 days): 100%
Eradication ([1]; vaginal tablets, rifaximin dose 12.5 mg, after 3 days): 100%
Eradication ([1]; vaginal tablets, rifaximin dose 12.5 mg, after 7 days): 100%
Patients with adverse events [2, 4]: 35.7%
Patients with vulvovaginal burning [2, 4]: 3.6%
Patients with vulvovaginal itching [2, 4]: 25.0%
Patients with adverse events [2, 5]: 34.6%
Patients with vulvovaginal burning [2, 5]: 19.2%
Patients with vulvovaginal itching [2, 5]: 19.2%
Patients with adverse events [2, 6]: 7.7%
Patients with vulvovaginal burning [2, 6]: 3.8%
Patients with vulvovaginal itching [2, 6]: 3.8%
rifaximin related vulvovaginal candidiasis during treatment ([2]; any of the treated groups): none of the treated groups showed any case of rifaximin-related vulvovaginal candidiasis; also recorded: No rifaximin related vulvovaginal candidiasis
adverse event in the clinical study ([2]; patients treated with 25 mg and 100 mg rifaximin in vaginal tablets): did not show any particular adverse event
Patients with decrease Nugent score ≥8 points [3, 7]: 14.29%
Patients with decreased Nugent score ≤0 points (not responding) [3, 7]: 9.52%
Patients with decreased Nugent score ≥3 points [3, 7]: 52.4%
Patients with decreased Nugent score ≥5 points [3, 7]: 28.6%
Recovered patients, both criteria (Amsel and Nugent) [3, 7]: 25.9%
Recovered patients, clinical evaluation criteria (Amsel) [3, 7]: 66.7%
Recovered patients, microbiological evaluation criteria (Nugent) [3, 7]: 25.9%
Patients with decreased Nugent score ≥3 points [3, 8]: higher than 50%
Patients with decreased Nugent score ≥5 points [3, 8]: about 28%
Recovered patients, microbiological evaluation criteria (Nugent) [3, 8]: about 25%
Patients with decrease Nugent score ≥8 points [3, 9]: 17.39%
Patients with decreased Nugent score ≤0 points (not responding) [3, 9]: 17.39%
Patients with decreased Nugent score ≥3 points [3, 9]: 65.2%
Patients with decreased Nugent score ≥5 points [3, 9]: 47.8%
Recovered patients, both criteria (Amsel and Nugent) [3, 9]: 48.0%
Recovered patients, clinical evaluation criteria (Amsel) [3, 9]: 80.0%
Recovered patients, microbiological evaluation criteria (Nugent) [3, 9]: 48.0%
Patients with decreased Nugent score ≥3 points [3, 10]: higher than 65%
Patients with decreased Nugent score ≥5 points [3, 10]: about 48%
Recovered patients, microbiological evaluation criteria (Nugent) [3, 10]: 47%
Patients with decrease Nugent score ≥8 points [3, 11]: 15.79%
Patients with decreased Nugent score ≤0 points (not responding) [3, 11]: 36.84%
Patients with decreased Nugent score ≥3 points [3, 11]: 36.9%
Patients with decreased Nugent score ≥5 points [3, 11]: 26.3%
Recovered patients, both criteria (Amsel and Nugent) [3, 11]: 36.0%
Recovered patients, clinical evaluation criteria (Amsel) [3, 11]: 72.0%
Recovered patients, microbiological evaluation criteria (Nugent) [3, 11]: 36.0%
Patients with decreased Nugent score ≥3 points [3, 12]: higher than 30%
Patients with decreased Nugent score ≥5 points [3, 12]: about 26%
Recovered patients, microbiological evaluation criteria (Nugent) [3, 12]: about 36%
Recovered patients, both criteria (Amsel and Nugent) ([3]; visit V4, Group A: 1 tablet 100 mg × 5 days): 14.8%
Recovered patients, both criteria (Amsel and Nugent) ([3]; visit V4, Group B: 1 tablet 25 mg × 5 days): 28.0%
Recovered patients, both criteria (Amsel and Nugent) ([3]; visit V4, Group C: 1 tablet 100 mg × 2 days): 4.0%
Recovery of patients after relapse of bacterial vaginosis [3, 4]: 38.5%
Recovery of patients suffering from a first episode of bacterial vaginosis [3, 4]: 14.3%
Recovery of patients after relapse of bacterial vaginosis [3, 5]: 53.8%
Recovery of patients suffering from a first episode of bacterial vaginosis [3, 5]: 41.7%
Recovery of patients after relapse of bacterial vaginosis [3, 6]: 46.2%
Recovery of patients suffering from a first episode of bacterial vaginosis [3, 6]: 25.0%
